ChEMBL document CHEMBL1144595, “Novel pyridinyl and pyrimidinylcarbazole sulfonamides as antiproliferative agents” (Bioorg Med Chem Lett, 2007)

Experiments:
Type in all cases: functional, cell-based
[1] = system: CCRF-CEM; assay: Cytotoxicity against human CEM cells
[2] = Antiproliferative activity against human DND1 cells
[3] = system: PC-3; assay: Antiproliferative activity against human PC3 cells
[4] = system: MCF7; assay: Antiproliferative activity against human MCF7 cells
[5] = system: DU-145; assay: Antiproliferative activity against human DU145 cells
[6] = system: MOLT-3; assay: Antiproliferative activity against human Molt3 cells
[7] = system: Bel-7402; assay: Antiproliferative activity against human Bel-7402 cells

SMILES | IC50 [1] | further results
CCn1c2ccccc2c2cc(S(=O)(=O)Nc3ccc(OC)cc3OC)ccc21 | 57 nM | IC50 [2]: 120 nM
CCn1c2ccccc2c2cc(S(=O)(=O)Nc3cccnc3OC)ccc21 | 786 nM | –
CCn1c2ccccc2c2cc(S(=O)(=O)Nc3nc(OC)cc(OC)n3)ccc21 | > 2000 nM | –
COc1ccc(/C=C\c2ccc(OC)c(O)c2)c(OC)n1 | 342 nM | –
CCn1c2ccccc2c2cc(S(=O)(=O)Nc3cc(OC)c(OC)c(OC)c3)ccc21 | 56 nM | IC50 [2]: 89 nM
COc1ccc(/C=C\c2cc(OC)c(OC)c(OC)c2)cc1O [COMBRETASTATIN A4] | – | IC50 [2]: 2.5 nM
CCn1c2ccccc2c2cc(S(=O)(=O)Nc3ccc(OC)nc3OC)ccc21 | 122 nM | IC50 [3]: 603 nM; IC50 [2]: 193 nM; IC50 [4]: 241 nM; IC50 [5]: 729 nM; IC50 [6]: 22 nM; IC50 [7]: 976 nM
CCn1c2ccccc2c2cc(S(=O)(=O)Nc3ccc(Cl)nc3Cl)ccc21 | > 2000 nM | –
CCn1c2ccccc2c2cc(S(=O)(=O)Nc3ccc(OC)nc3)ccc21 | 649 nM | –
CCn1c2ccccc2c2cc(S(=O)(=O)Nc3ccc(C)nc3C)ccc21 | > 2000 nM | –
COc1ccc(NS(=O)(=O)c2ccc3c(c2)CCN3C)c(OC)n1 | > 2000 nM | –
CCn1c2ccccc2c2cc(S(=O)(=O)Nc3cc(OC)ncn3)ccc21 | > 2000 nM | –
CCn1c2ccccc2c2cc(S(=O)(=O)Nc3cc(Cl)nc(Cl)c3)ccc21 | > 2000 nM | –
CCn1c2ccccc2c2cc(/C=C/c3ccc(OC)nc3OC)ccc21 | > 2000 nM | –
COc1ccc(NS(=O)(=O)c2ccc3c(ccn3C)c2)c(OC)n1 | 712 nM | –
COc1cc([C@@H]2c3cc4c(cc3[C@H](O)[C@H]3COC(=O)[C@H]23)OCO4)cc(OC)c1OC [PODOFILOX] | 7.2 nM | IC50 [2]: 12 nM
COc1ccc(NS(=O)(=O)c2ccc3c(c2)c2ccccc2n3C)c(OC)n1 | 101 nM | –
COc1ccc(/C=C/c2ccc(OC)c(O)c2)c(OC)n1 | > 2000 nM | –
CCn1c2ccccc2c2cc(/C=C\c3ccc(OC)nc3OC)ccc21 | > 2000 nM | –
CCn1c2ccccc2c2cc(S(=O)(=O)Nc3cc(OC)nc(OC)n3)ccc21 | > 2000 nM | –
